{
  "source": "patent US20240226018A1",
  "about": "“METHOD FOR COATING PHARMACEUTICAL SUBSTRATES” (Applied Materials, Inc., priority 2012, published 2024)",
  "test": "Tableting study: compression forces and crushing strength of tablets (eccentric tableting machine, Scleuninger-E apparatus)",
  "type": "physicochemical",
  "details": "tablets of target weight 300 mg, flat-faced 9 mm punches, die wall lubricated with 5% (w/V) magnesium stearate in acetone; upper punch force differs per material (Table 1)",
  "method": "The material obtained from Example 1 was tableted using an instrumented eccentric tableting machine (Korsch EK-0, Erweka Apparatebau, Heusenstamm, Germany) Flat-faced 9 mm punches were used and the die wall was lubricated using 5% (w/V) magnesium stearate in acetone before each compression. The target weights of tablets were 300 mg. Compression forces during the compression process were measured and the crushing strength of each tablet was measured using Scleuninger-E apparatus (Switzerland) (Table 1).",
  "data": [
    {"smiles": "CC(=O)Nc1ccc(O)cc1", "note": "[Neat paracetamol, paracetamol]", "values": [
      {"measurement": "Crushing strength", "value": "No tablet, no measurable"}
    ]}
  ]
}
